Data as given in a melting point compilation (Tetko et al.; mined from patent text by program, amines drawn as free bases though some values may be those of a salt).

SMILES	melting point
Cc1cccc(Sc2ccc3c(c2)CC[C@H]2NC(=O)CC[C@]32C)c1	189 to 191 °C
Cn1nnnc1CO/N=C(\C(=O)O)c1csc(N)n1	185 °C
Cn1c(C(F)(F)F)ccc(-c2cc(CBr)c(Cl)cc2F)c1=O	117 to 118 °C
CCCCCCCCCCNC(=O)c1ccc([N+](=O)[O-])cc1	89 to 91 °C
O=C(O)c1ccccc1CCc1n[nH]c2c1c(=O)n(-c1ccccc1)c1ncccc21	302 to 308 °C
COc1ccc(Br)cc1OCc1ccccc1	70 to 71 °C
CC(=O)Nc1ccc([N+](=O)[O-])cc1OC[Si](C)(C)C	128 °C
O=C(O)CCCCCn1nnnc1S	100 °C
CCN1CCc2ccc(Nc3ncc(Cl)c(Nc4ccccc4S(=O)(=O)NC)n3)cc2CC1	175 °C
COC(=O)c1cccc2c(C=O)c[nH]c12	153 to 154 °C
CCCCCC(=O)c1c(O)oc(=O)c(C(=O)CCCCC)c1O	87 to 88 °C
CCCCCCC1=CC(O)(C(Br)Br)NC1=O (configuration not stated)	106 to 109 °C
COc1ccc(S(=O)(=O)N(Cc2ccccc2)C(C)C(=O)NO)cc1 (configuration not stated)	127 to 129 °C
O=C(O)c1cnc(C(=O)O)c2ccccc12	216 °C
Cc1cccc(C2(C#N)C3CC4CC(C3)CC2C4)c1 (configuration not stated)	85 to 86 °C
Cc1ccc2cc(C(=O)NC3(C(=O)O)CCCC3)sc2c1	214 to 217 °C
Cc1ccnc(N2CCN(CCc3c(C)n4c5c(cc(NC(=O)c6ccccc6)cc35)CCC4)CC2)c1	218 °C
O=C(CC1CCN(Cc2ccccc2)CC1)Nc1cncnc1NCc1ccc(F)cc1	157 °C
CCCOc1ccccc1-c1nc(CO)c[nH]1	90 to 92 °C
Cc1cc(NC23N=CN=C2C=NC(N2CCC(C)CC2)=N3)[nH]n1 (configuration not stated)	> 300 °C
CC(=O)N1CC(=O)N/C(=C\c2ncoc2C(C)(C)C)C1=O	145 to 147 °C
COc1ccc(C(C#Cc2ccccc2)CNC(=O)C(F)(F)F)cc1OC1CCCC1 (racemic)	143 to 145 °C
CC(C)(Cc1ccc(OCCCC(=O)O)cc1)NCC(O)c1cc(OCc2ccccc2)cc2c1OCC(=O)N2 (configuration not stated)	216 to 218 °C
O=C1CCC(N2Cc3c(OCc4ccc(CN5CCN(c6ncccn6)CC5)cc4)cccc3C2=O)C(=O)N1 (configuration not stated)	142 to 144 °C
O=c1c2c([nH]n1-c1ccc(Cl)cc1)-c1ccccc1SC2	235 to 237 °C
CC(=O)NC1CCN(c2c(F)cc([N+](=O)[O-])c(F)c2CO)C1 (configuration not stated)	142 to 144 °C

SMILES	melting point
C[C@H]1C[C@@](O)(c2cccc(Sc3ccc4c(c3)CC(=O)N4C)c2)CCO1	110 to 111 °C
COc1cc(N)c(Cl)cc1C(=O)NC1CNCCn2c1nc(-c1ccncn1)cc2=O (configuration not stated)	277 to 279 °C
CC(C)N1C(=O)CCCc2cc(Nc3ncc(Cl)c(N[C@@H]4CCCC[C@H]4NS(C)(=O)=O)n3)ccc21	141 to 143 °C
COc1ccc(Oc2cccc(C(=O)O)c2)cc1	141 to 143 °C
O=C(NCc1ccc(Cl)cc1)c1cn2c3c(cc(CN4CCOCC4)cc3c1=O)OC(CN1CCCC1)C2 (configuration not stated)	210 to 212 °C
CCN1C(=O)C(=C(O)Cc2ccccc2)SC1=S	74 to 76 °C
Cc1c(C(=O)c2ccc3ccccc3c2)cccc1[N+](=O)[O-]	100 to 102 °C
NC(=O)C(N)CC(=O)N[C@@H]1CN2C(=O)N(c3cc(Cl)nc(Cl)c3)C(=O)[C@@]2(Cc2ccc(OC(F)(F)F)cc2)C1 (some centres not stated)	108 °C
COc1cc2c(NC3CCCC3)c(C#N)cnc2cc1F	162 to 164 °C
Nc1ccc(Sc2ccnc(N)c2)cc1	141 to 143 °C
CCOC(=O)C1=C(N)N=C(OCC)C(C(=O)O)C1c1ccccc1[N+](=O)[O-] (configuration not stated)	133 to 134 °C
CC(=O)C1(Nc2ccccc2)CCN(CCc2ccccc2)CC1	101 °C
CC(C)CC(=O)O[C@H]1C[C@H](O)C=C2C=C[C@H](C)[C@H](CC[C@@H]3C[C@@H](O)CC(=O)O3)[C@H]21	153 to 155 °C
CCOc1ccc(C2=NN(Cc3ccc(C(=O)O)cc3)C(=O)[C@H]3CCCC[C@@H]23)cc1OCC (relative stereo)	152 to 154 °C
O=C(Cn1nc(-c2ccccc2O)nc1-c1ccccc1O)NCCN1CCOCC1	180 to 182 °C
Cc1cc(C)cc(-c2nnc(C#N)o2)c1	127 °C
CNC(=O)C(C)Oc1ncn(-c2ccccc2)n1 (configuration not stated)	134 to 135 °C
Nc1cc(C(=O)Cn2c(-c3nonc3N)nc3ccccc32)ccc1Cl	228 to 230 °C
Cc1c(Cl)cc(C(C)(C)C)c(O)c1C(=O)Oc1ccccc1	68 to 69 °C
COC(CN(C(=O)C(C)C)C(C(=O)O)c1ccccc1)OC (configuration not stated)	147 to 149 °C
CC(C)Cc1c(Cl)sc2[nH]c(=O)c(=O)[nH]c12	> 270 °C
COc1ccc(Cn2c(=O)c3ccccc3n(CCCCCCl)c2=O)cc1	110 to 111 °C
CC(C)(C)NC(=O)CN1C(=O)C(N)CC(c2ccccc2F)c2ccccc21 (configuration not stated)	190 to 195 °C
CCC[C@H](NC(=O)CNC)C(=O)N[C@@H](CCCNC(=N)N)C(=O)N[C@@H](C)P(=O)(O)O	200 °C
COc1ccc(CN2C(=O)C(C)(c3cc(COCCO)ccc3Cl)c3cc(Cl)ccc32)c(OC)c1 (configuration not stated)	53 °C
COC(=O)Cc1nc(-c2ccccc2)c(-c2ccccc2)o1	87 to 91 °C

SMILES	melting point
CCCOc1ccc(S(=O)(=O)N(C)C)cc1C1=NC(=O)C2=NC=NC2=N1	268 to 269 °C
Clc1ccc(C(C2=NCCN2)c2nccs2)cc1 (configuration not stated)	145 to 147 °C
Cc1cc(CCc2cc(O)c(=O)[nH]n2)ccc1C(F)(F)F	174 to 175 °C
O=[N+]([O-])c1ccc(-n2nc(-c3ccccc3O)nc2-c2ccccc2O)cc1	180 to 183 °C
COc1ccc(-c2nc(CNC(C)=O)sc2-c2ccc(OC)cc2)cc1	138 to 141 °C
CC(=O)c1cn(-c2c(Cl)cc(C(F)(F)F)cc2Cl)nc1C(F)(F)F	134 °C
NS(=O)(=O)c1ccc(-c2c(-c3ccccc3)[nH]c3ccccc23)cc1	223 to 225 °C
O=C(NC(=O)c1c(F)cccc1Cl)Nc1ccc(Br)cn1	207 to 213 °C
CC(=O)c1cccc2c1NCC2	83 to 85 °C
CN(C)CCNC(=O)N1CCC(Sc2ccc(Cl)cc2)C1 (configuration not stated)	97 to 98.5 °C
Nc1nc(N)c2ncn(/C=C3/CC3(CO)CO)c2n1	219 to 220 °C
CN(C)c1onc2c1c(=O)n(C)c(=O)n2C	188 to 190 °C
CC(C)(C)OC(=O)N1C(Cc2ccccc2)SC[C@H]1C(=O)O (some centres not stated)	156 °C
N#Cc1cnn(-c2ccc(Cl)c(Cl)c2Cl)c1NCCO	197 to 199 °C
Cc1nc(N2CCN(Cc3ccccc3)C2=O)sc1C(=O)NCc1cc(F)ccc1F	176 to 177 °C
CCc1nc2cc(F)ccc2c(=O)n1NC(=O)C(C)c1ccccc1 (configuration not stated)	57 to 63 °C
CC1(C)CCC(C)(C)c2cc(C=O)c(F)cc21	119 to 120 °C
CCOC(=O)/C=C/c1ccc(C#Cc2ccc3c(c2)C(C)(C)CCC3(C)C)cc1	116 to 118 °C
Cn1c(Sc2cc(C(F)(F)F)ccc2C(=O)O)n[nH]c1=O	229 °C
O=C(c1sc2c([N+](=O)[O-])c(O)c(O)cc2c1Cl)N1CCCCC1	254 to 256 °C
CCCCNc1nc(-c2cc(OC)c(OC)c(OC)c2)nc2sc(C#N)c(C)c12	192 to 194 °C
CCOC(=O)C(C(=O)OCC)C(=O)c1ccc2oc3ncccc3c(=O)c2c1	137 to 138 °C
Cc1cc(C#N)cc(C(N)=O)c1NC(=O)c1cc(Br)nn1-c1ncccc1Cl	> 255 °C
Cc1ccc(N2C(=O)C(O)=C(C(=O)c3ccc(C(C)C)cc3)C2c2ccc(OC(F)F)cc2)nn1 (configuration not stated)	263 to 265 °C
O=C(/C=C/c1ccc(C(F)(F)F)cc1Br)Nc1ccc2[nH]ccc2c1	205 to 207 °C
CCC(C)C(C(=O)NS(C)(=O)=O)c1nc(OC)cc(OC)n1 (configuration not stated)	97 to 101 °C

SMILES	melting point
COc1ccc(N2CCN(C(N)=O)C2=O)cc1OC	240 °C
COc1ccc(CCc2ccc(NC(=O)C(=O)C3=C(O)c4ccccc4SC3)cc2)cc1OC	184 to 185 °C
Cn1cc(-c2ccc(C(F)(F)F)cc2)c(=O)c(-c2cccc(C(F)(F)F)c2)c1	110 to 113 °C
COC(=O)c1cc(I)ccc1N(C)S(C)(=O)=O	105 to 106 °C
COc1cc(Br)cc(C23CC4CC(CC(C4)C2)C3)c1OCc1ccccc1	89 to 91 °C
O=C(O)C1CNc2ccccc2CN1 (configuration not stated)	183 to 185 °C
Clc1nc(Cl)c2cc(N3CCCCC3)ccc2n1	101 to 102 °C
Cc1cc2cc(CN3CCCCCC3)cnc2cc1NC(=O)c1ccc(-c2ccc(F)cc2)cc1	170 to 174 °C
CN(c1ccc(O)cc1)c1cc2ccc(Cl)cc2c(O)n1	266 °C
CSc1nn(C(=O)NC(C)c2ccc(Cl)c(Cl)c2)c(=O)n1N (configuration not stated)	132 °C
CN1CCOC(=NO)C1=O	199 to 201 °C
CC(=O)NCc1ccc(-c2ccc([N+](=O)[O-])cc2)o1	149 to 151 °C
COc1ccc2nccc(CCC[C@@H]3CCN(CC#Cc4ccccc4)C[C@@H]3C(=O)O)c2c1	166 °C
O=S1(=O)NCN(C2CC2)c2ccc(F)c(Cl)c21	198 to 200 °C
CC(C(=O)O)N(C(=O)OC(C)(C)C)c1ccc(N)cc1 (configuration not stated)	128 to 133 °C
COc1ccc(C2(C#Cc3cccc(C#N)c3)CCC(=O)CC2)cc1OC1CCCC1	124 to 126 °C
C=CCN1C(=O)c2cccc(C)c2Oc2ncccc21	58 to 60 °C
Cc1nnc(-c2cnc3occ(-c4ccccc4Cl)c3c2)o1	141 to 142 °C
Cc1ccc(CS(=O)(=O)c2nc3cscc3[nH]2)nc1	163 °C
Cc1cc(-c2ccc(C(=O)O)cc2)ccn1	293 to 294 °C
COC(=O)c1c(-c2ccc(F)cc2)ccc2ccccc12	113 to 114 °C
CCOC(=O)c1ncc2[nH]c3ccc(N4CCCS4(=O)=O)cc3c2c1C	230 °C
Cc1c(-c2ccc(F)cc2)n(Cc2ccc(OCCBr)cc2)c2ccc(OCc3ccccc3)cc12	114 to 116 °C
CC(C)(C)OC(=O)NCCCc1ccccc1OCc1ccccc1	50 to 52 °C
